Experiments:
Test in all cases: biochemical
JARID1A (KDM5A) = JARID1A (KDM5A) (Homo sapiens, UniProt P29375); parameters: AlphaScreen histone demethylase activity assay
Description: (§1) A base‐mediated 5‐endo‐trig cyclization of a C‐2‐substituted aromatic imine afforded the racemic indoline core with two adjacent stereocenters. Subsequent acylation of the indoline ring system conferred stability towards oxidation and provided a handle for modulating polarity. Finally, metal‐catalysed cross‐coupling of the aryl bromide provided access to a variety of linkers between the indoline core and pyrrolidine capping group. In total, 45 racemic compounds were synthesized, and IC50 values for inhibition of KDM2A were determined using two orthogonal enzyme activity assays: AlphaScreen25 and RapidFire MS26 (see Section S3.1 in the Supporting Information for complete inhibition data). Key structure–activity relationships are summarized below (Scheme 1 B, compounds 2–12). […] In immunofluorescence assays using HeLa cells ectopically expressing catalytically active KDM2A, a dose‐dependent increase in H3K36me2 staining was observed upon incubation with (S,S)‐6, reflecting augmented cellular H3K36me2 levels (Figure 2 A and Section S3.3). […] To profile its selectivity, (S,S)‐6 was tested for inhibitory activity against a panel of KDMs, methyllysine binding motifs, and epigenetic enzymes.

JMJD2A (KDM4A) [1] = target: T1, JMJD2A (KDM4A) (Homo sapiens, UniProt O75164); parameters: AlphaScreen histone demethylase activity assay; settings: read-out: KDM4A % Inhib. (18.75 uM)
T1 sequence (O75164 1-1064): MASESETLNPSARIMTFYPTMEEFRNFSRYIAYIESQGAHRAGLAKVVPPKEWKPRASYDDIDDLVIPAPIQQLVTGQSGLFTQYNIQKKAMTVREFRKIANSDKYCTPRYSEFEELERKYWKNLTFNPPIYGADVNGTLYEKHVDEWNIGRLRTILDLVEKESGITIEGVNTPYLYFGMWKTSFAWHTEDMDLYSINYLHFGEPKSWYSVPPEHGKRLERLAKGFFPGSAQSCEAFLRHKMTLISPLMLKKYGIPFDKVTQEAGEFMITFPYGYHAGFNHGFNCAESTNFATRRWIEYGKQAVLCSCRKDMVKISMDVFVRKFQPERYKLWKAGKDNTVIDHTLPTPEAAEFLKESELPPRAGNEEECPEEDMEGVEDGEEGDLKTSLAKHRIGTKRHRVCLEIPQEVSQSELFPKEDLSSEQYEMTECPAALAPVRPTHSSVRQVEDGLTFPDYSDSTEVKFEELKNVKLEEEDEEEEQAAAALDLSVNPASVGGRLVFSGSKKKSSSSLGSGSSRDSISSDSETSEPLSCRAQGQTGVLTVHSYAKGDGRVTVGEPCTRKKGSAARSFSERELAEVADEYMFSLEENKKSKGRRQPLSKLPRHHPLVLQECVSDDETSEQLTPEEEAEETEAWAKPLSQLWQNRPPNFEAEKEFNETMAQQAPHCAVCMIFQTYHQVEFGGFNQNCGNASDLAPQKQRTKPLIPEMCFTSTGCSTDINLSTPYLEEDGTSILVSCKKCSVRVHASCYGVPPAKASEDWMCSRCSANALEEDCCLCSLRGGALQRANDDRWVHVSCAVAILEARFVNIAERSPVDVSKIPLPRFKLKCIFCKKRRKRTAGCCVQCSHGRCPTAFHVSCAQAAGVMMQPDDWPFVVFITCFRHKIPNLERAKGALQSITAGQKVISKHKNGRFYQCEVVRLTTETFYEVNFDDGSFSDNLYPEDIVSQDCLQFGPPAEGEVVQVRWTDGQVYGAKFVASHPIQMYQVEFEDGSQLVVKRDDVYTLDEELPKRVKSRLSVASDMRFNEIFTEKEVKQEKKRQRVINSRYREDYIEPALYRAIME

JMJD2A (KDM4A) [2] = target: T1, JMJD2A (KDM4A); parameters: AlphaScreen histone demethylase activity assay; settings: for IC50: read-out: KDM4A pIC50 (converted); for KDM4A pIC50: inhibitor
Description: as §1

KDM2A = target: T2, KDM2A (Homo sapiens, UniProt Q9Y2K7); parameters: RapidFire MS histone peptide demethylation assay; settings: for KDM2A RapidFire pIC50: inhibitor
T2 construct: isolated enzyme
T2 sequence (Q9Y2K7 1-517 limits assumed): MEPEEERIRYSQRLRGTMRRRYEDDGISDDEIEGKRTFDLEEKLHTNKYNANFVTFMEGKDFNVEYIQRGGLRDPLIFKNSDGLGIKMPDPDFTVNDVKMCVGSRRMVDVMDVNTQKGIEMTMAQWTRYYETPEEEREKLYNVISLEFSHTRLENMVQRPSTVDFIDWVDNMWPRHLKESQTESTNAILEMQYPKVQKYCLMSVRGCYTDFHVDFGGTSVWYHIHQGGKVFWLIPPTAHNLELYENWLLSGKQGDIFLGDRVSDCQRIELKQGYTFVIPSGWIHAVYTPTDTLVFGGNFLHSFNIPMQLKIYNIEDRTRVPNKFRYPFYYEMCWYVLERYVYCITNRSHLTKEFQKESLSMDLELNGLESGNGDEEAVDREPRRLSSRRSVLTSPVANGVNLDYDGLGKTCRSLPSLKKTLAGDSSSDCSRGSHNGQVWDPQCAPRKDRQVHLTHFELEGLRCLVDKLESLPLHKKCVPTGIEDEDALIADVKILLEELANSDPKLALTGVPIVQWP
Protocol: [formula] Scheme 1 A) General synthetic strategy for racemic synthesis of KDM2A inhibitors. Reagents and conditions: i) Zn powder (10 equiv), NH4Cl (15 equiv), 5:1 acetone/H2O or H2, Pd/C (10 % w/w), EtOAc; ii) ArCHO (1.3 equiv), MgSO4 (5 equiv), PhMe or ArCHO (1.3 equiv), pyrrolidine (0.1 equiv), 3 Å sieves, CH2Cl2; iii) KO^tBu (1.1 equiv), PhMe, 0 °C; iv) R^3COCl (2–5 equiv), pyridine (2–5 equiv), CH2Cl2; v) metal‐catalysed cross‐coupling. B) Key structure–activity relationships. IC50 values were determined by RapidFire MS and confirmed by AlphaScreen. All compounds are racemic. C) Catalytic enantioselective synthesis. Reagents and conditions: i) CsOH⋅H2O (2.0 equiv), catalyst 14/16 (10 mol %), PhMe, −30 °C. Catalyst 14: 89 %, d.r. 10:1, e.r. 88:12; catalyst 16: 84 %, d.r. 7:1, e.r. 17:83; ii) CH3COCl (2.0 equiv), pyridine (2.0 equiv), CH2Cl2; iii) H2, Pd/C (10 % w/w), 88 % (2 steps); iv) K2CO3 (5 equiv), Br(CH2)7Br (4 equiv), acetone, reflux, 38 %; v) K2CO3 (5 equiv) pyrrolidine (4 equiv), CH3CN, 65 %; vi) PhN(SO2CF3)2 (1.1 equiv), DIPEA (2.0 equiv), CH2Cl2, 0 °C, 85 %; vii) 7‐pyrrolidine‐hept‐1‐yne (1.5 equiv), PdCl2(PPh3)2 (5 mol %), CuI (5 mol %), HN(^iPr)2, 75 °C, 79 %; viii) H2, Pd/C (10 % w/w), MeOH, 74 %. DIPEA=(^iPr)2NEt. A base‐mediated 5‐endo‐trig cyclization of a C‐2‐substituted aromatic imine afforded the racemic indoline core with two adjacent stereocenters. Subsequent acylation of the indoline ring system conferred stability towards oxidation and provided a handle for modulating polarity. Finally, metal‐catalysed cross‐coupling of the aryl bromide provided access to a variety of linkers between the indoline core and pyrrolidine capping group. In total, 45 racemic compounds were synthesized, and IC50 values for inhibition of KDM2A were determined using two orthogonal enzyme activity assays: AlphaScreen25 and RapidFire MS26 (see Section S3.1 in the Supporting Information for complete inhibition data). Key structure–activity relationships are summarized below (Scheme 1 B, compounds 2–12).

JARID1A (KDM5A), sequence (P29375 whole entry): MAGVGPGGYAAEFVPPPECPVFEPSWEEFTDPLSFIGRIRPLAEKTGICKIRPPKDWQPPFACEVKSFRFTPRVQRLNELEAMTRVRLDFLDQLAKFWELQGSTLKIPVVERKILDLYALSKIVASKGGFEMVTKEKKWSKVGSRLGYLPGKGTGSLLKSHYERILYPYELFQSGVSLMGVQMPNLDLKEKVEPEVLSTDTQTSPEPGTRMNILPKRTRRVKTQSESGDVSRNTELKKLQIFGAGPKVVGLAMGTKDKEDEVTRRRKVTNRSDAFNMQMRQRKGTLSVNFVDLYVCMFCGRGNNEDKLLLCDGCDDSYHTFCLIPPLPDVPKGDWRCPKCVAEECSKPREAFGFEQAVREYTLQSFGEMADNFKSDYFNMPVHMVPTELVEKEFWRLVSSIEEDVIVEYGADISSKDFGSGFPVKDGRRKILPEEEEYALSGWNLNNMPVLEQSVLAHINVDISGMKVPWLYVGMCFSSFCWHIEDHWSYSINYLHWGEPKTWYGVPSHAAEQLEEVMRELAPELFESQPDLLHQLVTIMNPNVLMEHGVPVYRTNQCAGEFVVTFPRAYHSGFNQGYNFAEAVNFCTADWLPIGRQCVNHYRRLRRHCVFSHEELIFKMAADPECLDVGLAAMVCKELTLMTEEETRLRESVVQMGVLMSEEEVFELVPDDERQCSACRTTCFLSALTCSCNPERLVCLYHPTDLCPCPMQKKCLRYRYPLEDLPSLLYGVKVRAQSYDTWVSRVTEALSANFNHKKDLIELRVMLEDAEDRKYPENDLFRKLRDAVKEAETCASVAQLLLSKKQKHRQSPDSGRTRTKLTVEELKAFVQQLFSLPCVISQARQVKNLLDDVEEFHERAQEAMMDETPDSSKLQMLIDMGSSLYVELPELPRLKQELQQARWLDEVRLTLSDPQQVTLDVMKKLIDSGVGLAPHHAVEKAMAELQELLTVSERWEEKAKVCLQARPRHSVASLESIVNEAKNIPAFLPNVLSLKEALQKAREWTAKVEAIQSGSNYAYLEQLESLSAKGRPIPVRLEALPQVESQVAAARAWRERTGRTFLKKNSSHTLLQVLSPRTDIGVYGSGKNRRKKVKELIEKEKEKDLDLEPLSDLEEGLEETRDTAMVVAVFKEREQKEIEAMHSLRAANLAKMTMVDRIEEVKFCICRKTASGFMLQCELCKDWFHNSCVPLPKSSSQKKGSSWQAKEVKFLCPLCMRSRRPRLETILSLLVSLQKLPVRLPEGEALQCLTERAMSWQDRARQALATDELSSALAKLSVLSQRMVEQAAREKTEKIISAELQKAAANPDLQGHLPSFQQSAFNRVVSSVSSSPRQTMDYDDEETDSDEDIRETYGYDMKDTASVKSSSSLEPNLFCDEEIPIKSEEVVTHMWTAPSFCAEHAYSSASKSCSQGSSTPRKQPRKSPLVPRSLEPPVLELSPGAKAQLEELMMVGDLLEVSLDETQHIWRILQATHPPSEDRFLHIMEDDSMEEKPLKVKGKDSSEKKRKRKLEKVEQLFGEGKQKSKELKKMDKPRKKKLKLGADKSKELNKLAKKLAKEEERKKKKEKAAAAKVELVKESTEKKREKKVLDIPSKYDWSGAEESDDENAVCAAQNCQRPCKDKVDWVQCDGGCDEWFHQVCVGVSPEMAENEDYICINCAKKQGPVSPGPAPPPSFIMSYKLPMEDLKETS

Row | Compound | inhibition at 50 µM (JARID1A (KDM5A)) | inhibition at 18.75 µM (JMJD2A (KDM4A) [1]) | also measured
1 | CC(=O)N1c2ccccc2[C@](C#N)(c2ccccc2)[C@H]1c1cncc(OCCCCCCCN2CCCC2)c1 (racemic) [compound 3, 3] | 24% | -5.4% | –
2 | CC(=O)N1c2ccccc2[C@](C#N)(c2ccccc2)[C@H]1c1cncc(C#CCCCCCN2CCCC2)c1 (racemic) [compound 4, 4] | 39% | 10.2% | –
3 | CC(=O)N1c2ccccc2[C@](C#N)(c2ccccc2)[C@H]1c1ccc(CCCCCCCN2CCCC2)o1 (racemic) [compound 7, 7] | 47.5% | 8.5% | –
4 | CC(=O)N1c2ccccc2[C@](C#N)(c2ccccc2)[C@H]1c1cncc(OCCOCCOCCN2CCCC2)c1 (racemic) [compound 148, (2RS,3RS)-1-Acetyl-3-phenyl-2-(5-(2-(2-(2-(pyrrolidin-1-yl)ethoxy)ethoxy)ethoxy)pyridin-3-yl)indoline-3-carbonitrile] | – | -5.9% | IC50 (JMJD2A (KDM4A) [2]): > 20 µM
5 | CC(=O)N1c2ccccc2[C@](C#N)(c2ccccc2)[C@H]1c1ccc(C#CCCCCCN2CCCC2)o1 (relative stereo) [compound 132, 132] | 49.1% | 18.3% | KDM5A pIC50 (JARID1A (KDM5A); inhibitor): < 4.3; KDM4A pIC50 (JMJD2A (KDM4A) [2]): < 4.7; KDM2A RapidFire pIC50 (KDM2A): 5.990
6 | CC(=O)N1c2ccccc2C(C#N)(c2ccccc2)C1c1cc(CCCCCCCN2CCCC2)co1 (stereo not shown) [compound 8, 8] | 23% | 21.8% | –
7 | CC(=O)N1c2ccccc2C(C#N)(c2ccccc2)C1c1cncc(C#CCCCCCN2CCCC2)c1 (stereo not shown) [compound 130, 130] | 30.9% | -1.3% | –

Further lines, with some results ahead:

Row | inhibition at 50 µM (JARID1A (KDM5A)) | inhibition at 18.75 µM (JMJD2A (KDM4A) [1]) | Compound | also measured
8 | 25.5% | -1.1% | CC(=O)N1c2ccccc2[C@](C#N)(c2ccccc2)[C@H]1c1cncc(CCCCCCCN2CCCC2)c1 (racemic) [compound 6, 6] | –
9 | 36.7% | -9.59% | CC(=O)N1c2ccccc2[C@@](C#N)(c2ccccc2)[C@H]1c1cncc(OCCCCCCCN2CCCC2)c1 (racemic) [compound 145, (2RS,3SR)-1-Acetyl-3-phenyl-2-(5-((7-(pyrrolidin-1-yl)heptyl)oxy)pyridin-3-yl)indoline-3-carbonitrile] | IC50 (JARID1A (KDM5A); read-out: KDM5A pIC50 (converted)): > 50.1 µM; IC50 (JMJD2A (KDM4A) [2]): > 20 µM; IC50 (KDM2A; read-out: KDM2A RapidFire pIC50 (converted)): 1.01 µM
10 | – | 27.8% | CC(=O)N1c2ccccc2[C@@](C#N)(c2ccccc2)[C@H]1c1cccc(/C=C/CCCCCN2CCCC2)c1 (relative stereo) [compound 126, 126] | KDM4A pIC50 (JMJD2A (KDM4A) [2]): < 4.7; KDM2A RapidFire pIC50 (KDM2A): 5.983
11 | 40% | 7.8% | CC(=O)N1c2ccccc2[C@](C#N)(c2ccccc2)[C@H]1c1cncc(CCCCCCCN2CCCC2)c1 [(R,R)-6] | –
12 | 20% | -12.7% | CCOC(=O)C1(C#N)c2ccccc2N(C(C)=O)C1c1cncc(C=CCCCCCN2CCCC2)c1 (stereo not shown) [compound 124, 124] | –

— paper PMC5725665, “Discovery of a Highly Selective Cell‐Active Inhibitor of the Histone Lysine Demethylases KDM2/7” (Angewandte Chemie (International Ed. in English), 2017)
